One data set concerns SGLT2 (SAAT1). The settings on record: Kidney (S3), cited from earlier work; for Km: for D-glucose.
Another data set deals with T1, SGLT1 (Homo sapiens, UniProt P13866).
T1 sequence (P13866 1-664): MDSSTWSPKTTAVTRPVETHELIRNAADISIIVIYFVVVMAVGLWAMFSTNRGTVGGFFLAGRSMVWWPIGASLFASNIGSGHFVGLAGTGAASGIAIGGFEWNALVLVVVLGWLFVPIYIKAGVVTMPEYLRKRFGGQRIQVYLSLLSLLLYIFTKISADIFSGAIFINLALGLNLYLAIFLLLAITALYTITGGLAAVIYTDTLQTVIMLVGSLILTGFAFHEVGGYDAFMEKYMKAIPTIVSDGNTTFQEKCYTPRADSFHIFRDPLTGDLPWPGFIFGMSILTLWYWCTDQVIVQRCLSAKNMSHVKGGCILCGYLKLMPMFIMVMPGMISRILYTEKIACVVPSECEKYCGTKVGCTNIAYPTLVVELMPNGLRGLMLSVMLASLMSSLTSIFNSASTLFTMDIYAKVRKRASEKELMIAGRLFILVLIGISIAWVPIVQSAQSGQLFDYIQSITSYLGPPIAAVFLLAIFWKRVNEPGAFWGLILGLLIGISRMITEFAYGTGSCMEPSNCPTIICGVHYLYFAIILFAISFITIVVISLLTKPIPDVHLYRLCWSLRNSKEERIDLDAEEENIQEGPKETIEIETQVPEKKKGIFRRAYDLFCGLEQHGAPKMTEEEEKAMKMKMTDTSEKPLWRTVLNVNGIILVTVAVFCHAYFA
The conditions noted are these: Kidney (S1, S3), cited from earlier work; for Km: for D-glucose.

Data set [1] concerns db/db mice. Briefly: Fed plasma triglycerides after oral dosing of MX-6054 +/- T-1095 (Example 5). The format is in vivo. The settings on record: ± SEM. How it is done: (§1) To examine the effect of T-1095 in combination with a RXR agonist, male db/db mice (7 weeks of age/Jackson Labs, ME) were treated daily for 11 days with vehicle (0.5% methylcellulose), an RXR agonist such as MX-6054 (0.1 mg/kg-10 mg/kg), T-1095 (100 mg/kg), or MX-6054 plus T-1095. Mice (n=8 animals/group) received the test compounds or vehicle by oral gavage in a volume of 10 ml/kg of body weight. Body weight was recorded on day 1, prior to dosing, and days 4, 8 and 11. Two hours after the final dose (day 11), mice were weighed and anesthetized with CO2/O2 (70:30). Mice were then bled by retro-orbital sinus puncture into 2 mL heparinized polypropylene tubes on ice. Livers were excised, weighed and frozen.
(§2) Plasma samples were then assayed for glucose and triglycerides using Trinder reagent (Sigma Diagnostics) and GPO-Trinder (Sigma Diagnostics).

The nature of data set [2]: Liver weight after oral dosing of MX-6054 +/- T-1095 (Example 5). The format is in vivo. The settings on record: db/db mice; for liver weight (title: Effects on body and liver weights): oral dosing (title: 35 day), in g (unit assumed).
For data set [3], the system named is db/db mice. Briefly: Fed plasma glucose after oral dosing of MX-6054 +/- T-1095 (Example 5). The conditions noted are these: ± SEM. The format is in vivo. The protocol: as §1, §2
Data set [4] in a line: Body weight after oral dosing of MX-6054 +/- T-1095 (Example 5). The format is in vivo. The conditions noted are these: oral dosing (title: 35 day), db/db mice. How it is done: To examine the effect of T-1095 in combination with a RXR agonist, male db/db mice (7 weeks of age/Jackson Labs, […]), an RXR agonist such as MX-6054 (0.1 mg/kg-10 mg/kg), T-1095 (100 mg/kg), or MX-6054 plus T-1095. Mice (n=8 animals/group) received the test compounds or vehicle by oral gavage in a volume of 10 ml/kg of body weight. […] […] Mice were then bled by retro-orbital sinus puncture into 2 mL heparinized polypropylene tubes on ice. Livers were excised, weighed and frozen.

Another data set relates to SGLT in the kidney. The conditions noted are these: cited from earlier work.
The next data set deals with T2, SGLT-2 in the kidney (Homo sapiens, UniProt P31639).
T2 sequence (P31639 1-672): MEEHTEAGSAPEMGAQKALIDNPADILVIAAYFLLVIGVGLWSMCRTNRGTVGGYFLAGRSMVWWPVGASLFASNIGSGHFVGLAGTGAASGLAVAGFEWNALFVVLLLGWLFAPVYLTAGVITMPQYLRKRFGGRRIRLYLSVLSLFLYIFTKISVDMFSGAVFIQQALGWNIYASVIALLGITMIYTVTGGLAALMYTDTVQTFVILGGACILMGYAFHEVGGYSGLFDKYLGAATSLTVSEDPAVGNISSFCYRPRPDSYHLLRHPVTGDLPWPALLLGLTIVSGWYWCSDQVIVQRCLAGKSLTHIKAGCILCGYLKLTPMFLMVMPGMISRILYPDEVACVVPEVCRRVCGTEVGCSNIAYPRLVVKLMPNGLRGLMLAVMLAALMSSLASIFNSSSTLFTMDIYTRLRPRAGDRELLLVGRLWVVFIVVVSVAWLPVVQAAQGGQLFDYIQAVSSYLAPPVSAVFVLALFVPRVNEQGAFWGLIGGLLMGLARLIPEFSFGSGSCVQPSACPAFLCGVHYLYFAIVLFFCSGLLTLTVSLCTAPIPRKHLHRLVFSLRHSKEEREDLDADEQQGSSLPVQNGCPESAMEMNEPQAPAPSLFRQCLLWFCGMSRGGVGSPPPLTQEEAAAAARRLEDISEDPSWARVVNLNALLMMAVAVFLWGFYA
The settings on record: compared with T-1095; cited from earlier work.

The subject of data set [5] is diabetic rodent models (STZ-induced diabetic rat, yellow KK mice, db/db mice, Zucker Diabetic Fatty rats and GK rats). The settings on record: cited from earlier work.
Data set [6] relates to Na^+-glucose co-transporters located in chorionic membrane of the intestine and the kidney. The conditions noted are these: cited from earlier work.
In data set [7] the test system is renal tubular glucose reabsorption. The settings on record: subcutaneous daily administration; cited from earlier work.
Where [8] appears, read: 0.1 mpk MX-6054, 11 day oral dosing.
Where [9] appears, read: 0.3 mpk MX-6054, 11 day oral dosing.
[10] abbreviates: 1 mpk MX-6054, 11 day oral dosing.
Where [11] appears, read: 3 mpk MX-6054, 11 day oral dosing.
The mark [12] stands for this setting: 10 mpk MX-6054, 11 day oral dosing.
Setting [13] is: 100 mpk T-1095, 11 day oral dosing.

Each structure is given as a SMILES string. Where two headings read alike, the source gives them in different places.

`O=C[C@H](O)[C@@H](O)[C@H](O)[C@H](O)CO` [D-glucose]: the Km was 6000 µM with SGLT2 (SAAT1) (read-out: Km In vivo), 1640 µM in the data set on SGLT2 (SAAT1) (read-out: Km in vitro), 300 µM at SGLT1 (read-out: Km In vivo) and 390 µM at SGLT1 (read-out: Km in vitro). Moreover, the results for the “TmG in vitro (Maximal transport rate)” value in the data set on SGLT2 (SAAT1) and at SGLT1 were 83 pmol/min/mm and 7.9 pmol/min/mm, respectively.

`Cc1cc2c(cc1-c1cc(/C=C3\SC(=O)NC3=O)ccc1OC(F)(F)F)C(C)(C)CCC2(C)C` [MX-6054, 2,4-thiazolidinedione, 5-[[3-(5,6,7,8-tetrahydro-3,5,5,8,8-pentamethyl-2-naphthalenyl)-4-(trifluoromethoxy)phenyl]methylene]-, (5Z)-]: the Triglycerides came out at 260 ± 24 mg/dL in the data set with db/db mice [1] (setting [8]); 262 ± 25 mg/dL with db/db mice [1] (setting [9]); 259 ± 28 mg/dL with db/db mice [1] (setting [10]); 206 ± 24 mg/dL with db/db mice [1] (setting [11]); 189 ± 11 mg/dL with db/db mice [1] (setting [12]). In addition, the “liver weight (title: Effects on body and liver weights)” value came to 1.76 ± 0.11 in [2] (0.1 mpk MX-6054); 1.93 ± 0.09 in data set [2] (0.3 mpk MX-6054); 1.98 ± 0.09 in data set [2] (1 mpk MX-6054); 1.89 ± 0.09 in data set [2] (3 mpk MX-6054); 2.38 ± 0.16 in [2] (10 mpk MX-6054). Further, the “liver weight, effect of treatment in words” value in data set [2] (treatment with MX-6054) is on record as “significant increase”. In addition, the Glucose in the data set with db/db mice [3] (setting [8]) is 357 ± 46 mg/dL; with db/db mice [3] (setting [9]), 342 ± 41 mg/dL; with db/db mice [3] (setting [10]), 406 ± 57 mg/dL; in the data set with db/db mice [3] (setting [11]) it was 255 ± 42 mg/dL; in the data set on db/db mice [3] (setting [12]), 224 ± 13 mg/dL. Moreover, the “body weight (title: Effects on body and liver weights)” value in data set [4] (0.1 mpk MX-6054) is −0.7 ± 0.7; in data set [4] (0.3 mpk MX-6054), 0.2 ± 0.4; in [4] (1 mpk MX-6054), 0.6 ± 0.6; in data set [4] (3 mpk MX-6054) it was −0.8 ± 1.3; in [4] (10 mpk MX-6054), 2.5 ± 1.1.

For `Cc1cc(O)c(C(=O)CCc2ccc3occc3c2)c(OC2OC(CO)C(O)C(O)C2O)c1` (centres unmarked) [T-1095A], the “inhibition of SGLT in the kidney” value in the data set on SGLT in the kidney is “selective and potent inhibitor”. The “substrate for the inhibition of SGLT-2 in the kidney” value on SGLT-2 in the kidney is on record as “better substrate”.

Take `COC(=O)OCC1OC(Oc2cc(C)cc(O)c2C(=O)CCc2ccc3occc3c2)C(O)C(O)C1O` (centres unmarked) [T-1095]: the Triglycerides with db/db mice [1] (setting [13]) came out at 196 ± 11 mg/dL. Also, the “liver weight (title: Effects on body and liver weights)” value in [2] (100 mpk T-1095) stood at 1.64 ± 0.07. Moreover, the “MX-6054-induced increase in liver weight” value in data set [2] (co-administration of T-1095 with MX-6054) was “prevented”. Besides, the “adding weight, infection in the urinary tracts, electrolyte imbalance in plasma, changes in food intake, acute hypoglycemic shock, pathological changes in the kidney” value in data set [5] (during treatment with T-1095) is on record as “no observed sign”. Also, in data set [5] (in vivo, po), the “oral glucose tolerance test and hyperinsulinemic euglycemic clamp studies” value was “improvement of glucose tolerance and the reduction of insulin resistance”. In [5] (oral administration, rodent models of IDDM and NIDDM), the “elevated blood glucose levels” value is “suppress elevated blood glucose levels”. Besides, in data set [5] (treatment for 3 weeks to 6 months, diabetic rodent models), the “fed and fasting blood glucose levels and HbA1c” value is “reduced”. Also, the “hyperinsulinemia, hypertriglyceridemia, and the development of microalbuminuria” value in data set [5] (yellow KK mice and other diabetic mice models) is listed as “decrease”. The Glucose with db/db mice [3] (setting [13]) is on record as 201 ± 9 mg/dL. Besides, the “body weight (title: Effects on body and liver weights)” value in data set [4] (100 mpk T-1095) was 0.7 ± 0.3.

Regarding `O=C(CCc1ccc(O)cc1)c1c(O)cc(O)cc1O[C@@H]1O[C@H](CO)[C@@H](O)[C@H](O)[C@H]1O` [phlorizin], the “Na^+-glucose co-transporter activity” value in data set [6] is listed as “inhibits”. Moreover, the “glucose level in a plasma” value in [7] is “controlled at a normal level for a long time”.

In general, Km refers to the concentration of substrate that gives half-maximal velocity.

(Values after patent US8183213B2, “Combination therapy comprising glucose reabsorption inhibitors and retinoid-X receptor modulators” (Ortho McNeil Pharmaceutical, Inc., priority 2001, dated 2012).)
